Measured values reported in patent US20150351394A1, “BACTERICIDAL COMPOSITION CONTAINING FLUAZINAM” (Shenzhen Noposion Agrochemicals Co., Ltd., priority 2014, published 2015).

Key:
[1] = test system: pepper phytophthora capsici; experiment: Indoor toxicity test on potted pepper seedlings inoculated with pepper phytophthora capsici (NY/T1156.11-2008); type: in vivo; settings: single active compound, survey 8 days after inoculation
Method: The pepper phytophthora capsici is acted as test object.
Test methods: referring to the “Republic of China agricultural industry standard NY/T1156.11-2008”, selecting growing consensus potted pepper seedlings, selecting five pots per test object with respective number for use, spraying five milliliters for each pot by a Potter spray tower in a pressure of 50 PSI. The test results are shown in Tables 1 and 2 and each test pesticide is provided with five concentration gradients. After 24 hours, five millimeters pepper phytophthora capsici mycelium blocks are inoculated into the objects. Pepper seedlings with an equal amount of water spraying are selected as the blank control. After inoculation, pepper seedlings are shifted into light moisturizer cabinets for culture. After 8 days, in accordance with grading standards of incidence of pepper phytophthora blights, the disease indexes are surveyed and the control effects are calculated.
Capsici disease classification criteria:
0 level: no lesion on the leaves;
1 level: lesion area of the total leaf area is 5% or less;
3 level: lesion area of the total leaf area is from 6% to 10%;
5 level: lesion area of the total leaf area is from 11% to 25%;
7 level: lesion area of the total leaf area is from 25% to 50%;
9 level: lesion area of the total leaf area is 50% or more.
Disease index=[Σ(leaf quantity in each level×respective level number)×100]/(Total quantity of tested leaves×9).
Control effect (%)=[(blank disease index−treated disease index)]×100]/blank disease index.
Expected effect of a mixture of the active ingredients (i.e., control effect in theory, %) is determined by using Colby's formula and is compared with observed effect:
Colby formula: E=X+Y−X*Y/100
E: expected effect of the composition provided that active ingredient A thereof is in a concentration of a value, and active ingredient B is in a concentration of b value.
X: expected effect provided that usage dose of the active ingredient A is a value.
Y: expected effect provided that usage dose of the active ingredient B is b value.
It is testified that the mixture has a synergistic effect when the actual control effect observed exceeds the expected control effect.

[2] = test system: pepper phytophthora blight; experiment: Field efficacy experiment against the pepper phytophthora blight (Haikou, Hainan); type: in vivo, phytophthora capsici; settings: two foliar sprays 7 days apart, field peppers
Method: Test site is Haikou in Hainan. […] Four plots are treated per pesticide and replicates. Each plot has surface area of 20 square meters. The pesticides are applied in the early occurrence of disease and are uniformly sprayed onto the leaves until dripping for the first time. Clean water is used as the blank control. Seven days later, the pesticides are applied for the second time. Disease incidence of the pepper phytophthora blights to the peppers prior to the first pesticide application and that of after 15 days from the second pesticide application are surveyed. Each plot uses a five-point sampling means, surveying two per point, and recording the number of diseased plants, dead plants and apparent withered plants. Disease index and control effect are calculated for each treatment.
Classification method (according to symptom types):
0 level: health, no disease;
1 level: lesions happen only to overground leaves and fruitst;
3 level: brown rot spots happen to overground stems and branches;
5 level: brown rot spots happen to the stem base;
7 level: brown rot spots happen to overground stems, branches and stem base, and some dead branches;
9 level: entire plant dead.
Efficacy calculation method:
Disease index=[Σ(plant quantity in each level×respective level number)×100]/(Total quantity of tested plants×9). […]

## C=CCc1ccc(O)c(OC)c1 [Eugenol, 4-allyl-2-methoxy-phenol]
[1]; 1 ppm in spraying droplet
  Actual effect (control effect): 6.2%
[1]; 10 ppm in spraying droplet
  Actual effect (control effect): 17.6%
[1]; 30 ppm in spraying droplet
  Actual effect (control effect): 46.3%
[1]; 50 ppm in spraying droplet
  Actual effect (control effect): 63.8%
[1]; 100 ppm in spraying droplet
  Actual effect (control effect): 79.5%
[2]; 20 g a.i./ha
  Control effects: 71.6%

## O=[N+]([O-])c1cc(C(F)(F)F)c(Cl)c([N+](=O)[O-])c1Nc1ncc(C(F)(F)F)cc1Cl [Fluazinam, 3-chloro-N-(3-chloro-5-trifluoromethyl-2-pyridyl)-α,α,α-trifluor-2,6-dinitro-p-toluidine]
[1]; 1 ppm in spraying droplet
  Actual effect (control effect): 11.4%
[1]; 10 ppm in spraying droplet
  Actual effect (control effect): 31.2%
[1]; 20 ppm in spraying droplet
  Actual effect (control effect): 52.9%
[1]; 50 ppm in spraying droplet
  Actual effect (control effect): 71.4%
[1]; 100 ppm in spraying droplet
  Actual effect (control effect): 87.1%
[2]; 250 g a.i./ha
  Control effects: 78.7%
